# Test results taken from patent EP3800188A1, “SUBSTITUTED PYRAZOLOPYRIMIDINES AS IRAK4 INHIBITORS” (Bayer AG, priority 2019, dated 2021).
# Assays:
# [1] = Metabolic stability in human liver microsomes; conditions: 1 µM compound; for CLblood, human microsomes: hepatic in vivo blood clearance calculated with well stirred liver model, '(stable)' given beside < 0.01; for Fmax, human microsomes: maximal oral bioavailability calculated with well stirred liver model, 0.5 mg/mL protein, '(stable)' given beside 100
# human IRAK4 = target: T1, human IRAK4 (Homo sapiens, UniProt Q9NWZ3); assay: Human IRAK4 kinase activity inhibition assay (IRAK4 TR-FRET assay); format: biochemical; conditions: 1 mM ATP, GST-human IRAK4, average or median values
# T1 construct: GST (N); made in house; host or cells: baculovirus-infected Hi5 (BTI-TN-5B1-4) insect cells
# T1 sequence (Q9NWZ3 1-460): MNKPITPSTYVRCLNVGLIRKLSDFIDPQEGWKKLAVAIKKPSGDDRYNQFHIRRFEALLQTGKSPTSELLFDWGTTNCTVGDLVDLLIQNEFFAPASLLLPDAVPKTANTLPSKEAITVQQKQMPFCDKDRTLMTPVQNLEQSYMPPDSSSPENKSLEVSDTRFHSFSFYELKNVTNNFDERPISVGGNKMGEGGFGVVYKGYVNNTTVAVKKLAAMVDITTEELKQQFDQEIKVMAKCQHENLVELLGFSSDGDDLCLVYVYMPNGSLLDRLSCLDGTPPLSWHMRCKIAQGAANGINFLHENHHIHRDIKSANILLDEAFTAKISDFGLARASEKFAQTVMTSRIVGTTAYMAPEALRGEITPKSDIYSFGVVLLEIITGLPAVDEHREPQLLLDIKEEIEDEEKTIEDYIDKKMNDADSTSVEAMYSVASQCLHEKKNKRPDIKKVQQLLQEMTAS
# Method in brief: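 GST-IRAK4 from insect cells (about 0.2 nM, linear range) was preincubated 15 min with compound (11 concentrations, 20 µM–0.073 nM) in HEPES pH 7.5 with MgCl2 and DTT before kinase reaction on a biotinylated peptide. Phosphopeptide was detected by TR-FRET (Eu anti-mouse-IgG/anti-phosphoserine/streptavidin-XL665, 1 h at 22°C) as the 665/620 nm ratio, normalized to no-compound and no-enzyme controls.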
# canine Irak4 = target: T2, canine Irak4 (Canis lupus familiaris, UniProt A0A8I3S726); assay: Canine Irak4 kinase assay (TR-FRET); format: biochemical; conditions: 1 mM ATP, His6-tagged canine Irak4, average or median values
# T2 sequence (A0A8I3S726 2-459): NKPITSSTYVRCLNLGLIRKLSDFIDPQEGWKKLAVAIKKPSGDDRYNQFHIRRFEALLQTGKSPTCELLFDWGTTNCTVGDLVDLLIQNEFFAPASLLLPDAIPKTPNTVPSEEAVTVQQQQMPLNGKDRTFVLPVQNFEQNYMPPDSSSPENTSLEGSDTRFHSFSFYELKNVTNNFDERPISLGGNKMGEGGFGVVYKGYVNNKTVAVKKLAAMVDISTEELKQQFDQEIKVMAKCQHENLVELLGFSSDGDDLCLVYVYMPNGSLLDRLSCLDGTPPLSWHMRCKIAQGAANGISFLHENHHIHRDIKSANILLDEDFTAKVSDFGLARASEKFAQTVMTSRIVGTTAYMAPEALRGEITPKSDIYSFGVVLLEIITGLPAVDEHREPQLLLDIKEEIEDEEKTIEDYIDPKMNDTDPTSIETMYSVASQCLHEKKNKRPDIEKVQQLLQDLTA
# [2] = Metabolic stability in dog liver microsomes; format: in vitro ADME; conditions: 1 µM compound; for CLblood, dog microsomes: hepatic in vivo blood clearance calculated with well stirred liver model, '(stable)' given beside < 0.01; for Fmax, dog microsomes: maximal oral bioavailability calculated with well stirred liver model, 0.5 mg/mL protein, '(stable)' given beside 100
# Procedure: From the half-life the intrinsic clearances were calculated.
Compound,"CLblood, human microsomes [1]","Fmax, human microsomes [1]",IC50 (human IRAK4),IC50 (canine Irak4),"CLblood, dog microsomes [2]","Fmax, dog microsomes [2]"
"CC(C)(O)C1CCN(c2nc(NC3CCS(=O)(=O)C3)nc3c2cnn3-c2cccc(C(F)(F)F)c2)CC1 (single isomer, unassigned; (+)) [Example I-4-2, (+)-2-(1-{6-[(1,1-dioxidotetrahydrothiophen-3-yl)amino]-1-[3-(trifluoromethyl)phenyl]-1H-pyrazolo[3,4-d]pyrimidin-4-yl}piperidin-4-yl)propan-2-ol]",0.14 L/h/kg,89%,8.27 nM,8.54 nM,–,–
"O=C1C[C@H](Nc2nc(N3CC(N4CCOCC4)C3)c3cnn(-c4cccc(C(F)(F)F)c4)c3n2)CN1 [Example I-1-1, (4S)-4-({4-[3-(morpholin-4-yl)azetidin-1-yl]-1-[3-(trifluoromethyl)phenyl]-1H-pyrazolo-[3,4-d]pyrimidin-6-yl}amino)pyrrolidin-2-one]",–,–,3.04 nM,3.19 nM,–,–
"CC(C)(O)C1CCN(c2nc(N[C@@H]3CNC(=O)C3)nc3c2cnn3-c2cccc(C(F)(F)F)c2)CC1 [Example I-2-1, (4S)-4-({4-[4-(2-hydroxypropan-2-yl)piperidin-1-yl]-1-[3-(trifluoromethyl)phenyl]-1H-pyrazolo[3,4-d]pyrimidin-6-yl}amino)pyrrolidin-2-one]",0.32 L/h/kg,76%,7.19 nM,8.7 nM,–,–
"CC(C)(O)C1CCN(c2nc(NC3CCS(=O)(=O)CC3)nc3c2cnn3-c2cccc(C(F)(F)F)c2)CC1 [Example I-5, 2-(1-{6-[(1,1-dioxidotetrahydro-2H-thiopyran-4-yl)amino]-1-[3-(trifluoromethyl)phenyl]-1H-pyrazolo[3,4-d]pyrimidin-4-yl)piperidin-4-yl)propan-2-ol]",0.09 L/h/kg,93%,10.5 nM,9.27 nM,–,–
"CN1CC[C@H](Nc2nc(N3CCC(C(C)(C)O)CC3)c3cnn(-c4cccc(C(F)(F)F)c4)c3n2)C1 [Example I-13-1, 2-[1-(6-{[(3S)-1-methylpyrrolidin-3-yl]amino}-1-[3-(trifluoromethyl)phenyl]-1H-pyrazolo[3,4-d]pyrimidin-4-yl)piperidin-4-yl]propan-2-ol]",0.50 L/h/kg,62%,13.1 nM,26.4 nM,–,–
"CC(C)(O)C1CCN(c2nc(NC3CN(S(C)(=O)=O)C3)nc3c2cnn3-c2cccc(C(F)(F)F)c2)CC1 [Example I-14, 2-[1-(6-{[1-(methylsulfonyl)azetidin-3-yl]amino}-1-[3-(trifluoromethyl)phenyl]-1H-pyrazolo[3,4-d]pyrimidin-4-yl)piperidin-4-yl]propan-2-ol]",0.07 L/h/kg,95%,12 nM,12.7 nM,–,–
"O[C@H]1C[C@@H](Nc2nc(N3CC(N4CCOCC4)C3)c3cnn(-c4cccc(C(F)(F)F)c4)c3n2)C1 [Example I-72, cis-3-({4-[3-(morpholin-4-yl)azetidin-1-yl]-1-[3-(trifluoromethyl)phenyl]-1H-pyrazolo[3,4-d]pyrimidin-6-yl}amino)cyclobutanol]",0.28 L/h/kg,79%,7.31 nM,–,0.10 L/h/kg,95%

# More lines, now with the values ahead:
"CLblood, human microsomes [1]","Fmax, human microsomes [1]",IC50 (human IRAK4),IC50 (canine Irak4),"CLblood, dog microsomes [2]","Fmax, dog microsomes [2]",Compound
< 0.01 (stable) L/h/kg,100 (stable) %,3.33 nM,–,< 0.01 (stable) L/h/kg,100 (stable) %,"CN1CC[C@H](Nc2nc(N3CCC(C(C)(C)O)CC3)c3cnn(-c4cccc(C(F)F)c4)c3n2)C1 [II-4, 2-[1-(1-[3-(difluoromethyl)phenyl]-6-{[(3S)-1-methylpyrrolidin-3-yl]amino}-1H-pyrazolo-[3,4-d]pyrimidin-4-yl)piperidin-4-yl]propan-2-ol]"
0.10 L/h/kg,93%,3.45 nM,–,0.24 L/h/kg,89%,"CC(C)(O)C1CCN(c2nc(NC3CCS(=O)(=O)CC3)nc3c2cnn3-c2cccc(C(F)F)c2)CC1 [II-5, 2-(1-{1-[3-(difluoromethyl)phenyl]-6-[(1,1-dioxidotetrahydro-2H-thiopyran-4-yl)amino]-1H-pyrazolo[3,4-d]pyrimidin-4-yl}piperidin-4-yl)propan-2-ol]"
0.19 L/h/kg,86%,5.49 nM,–,0.46 L/h/kg,78%,"CC(C)(O)C1CCN(c2nc(N[C@H]3CCS(=O)(=O)C3)nc3c2cnn3-c2cccc(C(F)F)c2)CC1 [II-6, 2-[1-(1-[3-(difluoromethyl)phenyl]-6-{[(3S)-1,1-dioxidotetrahydrothiophen-3-yl]amino}-1H-pyrazolo[3,4-d]pyrimidin-4-yl)piperidin-4-yl]propan-2-ol]"
0.25 L/h/kg,81%,2.98 nM,–,0.42 L/h/kg,80%,"CC(C)(O)C1CCN(c2nc(NC3CN(S(C)(=O)=O)C3)nc3c2cnn3-c2cccc(C(F)F)c2)CC1 [II-12, 2-[1-(1-[3-(difluoromethyl)phenyl]-6-{[1-(methylsulfonyl)azetidin-3-yl]amino}-1H-pyrazolo[3,4-d]pyrimidin-4-yl)piperidin-4-yl]propan-2-ol]"
0.10 L/h/kg,93%,6.8 nM,–,–,–,"C[C@@]1(O)CCN(c2nc(N[C@H]3C[C@H](S(C)(=O)=O)C3)nc3c2cnn3-c2cccc(C(F)F)c2)C1 [II-35, (3R)-1-(1-[3-(difluoromethyl)phenyl]-6-{[(1r,3R)-3-(methylsulfonyl)cyclobutyl]amino}-1H-pyrazolo[3,4-d]pyrimidin-4-yl)-3-methylpyrrolidin-3-ol]"
0.32 L/h/kg,76%,3.42 nM,–,< 0.01 (stable) L/h/kg,100 (stable) %,"CC(C)(O)C1CCN(c2nc(N[C@H]3C[C@H](S(C)(=O)=O)C3)nc3c2cnn3-c2cccc(OC(F)F)c2)CC1 [IV-2, 2-[1-(1-[3-(difluoromethoxy)phenyl]-6-{[trans-3-(methylsulfonyl)cyclobutyl]amino}-1H-pyrazolo[3,4-d]pyrimidin-4-yl)piperidin-4-yl]propan-2-ol]"
0.14 L/h/kg,89%,6.61 nM,–,–,–,"CS(=O)(=O)N1CC(Nc2nc(N3CCC(C4(N)CC4)CC3)c3cnn(-c4cccc(OC(F)F)c4)c3n2)C1 [IV-3, 4-[4-(1-aminocyclopropyl)piperidin-1-yl]-1-[3-(difluoromethoxy)phenyl]-N-[1-(methylsulfonyl)azetidin-3-yl]-1H-pyrazolo[3,4-d]pyrimidin-6-amine]"
0.55 L/h/kg,58%,4.78 nM,–,–,–,"CC(C)(O)CC1CN(c2nc(N[C@H]3C[C@H](S(C)(=O)=O)C3)nc3c2cnn3-c2cccc(OC(F)F)c2)C1 [IV-4, 1-[1-(1-[3-(difluoromethoxy)phenyl]-6-{[trans-3-(methylsulfonyl)cyclobutyl]amino}-1H-pyrazolo[3,4-d]pyrimidin-4-yl)azetidin-3-yl]-2-methylpropan-2-ol]"
